In data set [1] the test system is β-amyloid peptide production. The data set can be described thus: Cellular screen for inhibitors of β-amyloid production (ELISA, 293 751 SWE cells). The note with it: 2 h pretreatment + 2 h, normalized for cytotoxicity (MTT), concentration not given. It is filed as cell-based, human. In outline: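 293 751 SWE cells (K293 stably expressing APP751 Swedish mutant) pretreated 2 h with compound, then fresh compound-containing medium for 2 h more at 37 °C. Secreted β-amyloid in conditioned medium quantified by sandwich ELISA (capture 266 anti-Aβ13-28, labelled 6C6 anti-Aβ1-16) against a standard curve as ng/mL; mean ± SD of ≥6 replicates.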
In general terms: In an ELISA, binding on a coated surface is turned into a signal by an enzyme label.

The next data set has as its system 293 751 SWE cells. The data set can be described thus: Cytotoxicity (MTT) in 293 751 SWE cells. It is filed as cell-based, human. As to conditions: concentration not given. In outline: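 Used HEK293 cells stably expressing APP751 carrying the Swedish double mutation (K651N/M652L), plated at 1.5-2.5×10^4 cells/well in DMEM + 10% FBS. MTT was added to a final 1 mg/mL for 1 h at 37 °C, then lysed in SDS/DMF (pH 4.7) overnight. Viability was read as OD562 − OD650.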

The target in a further data set is T1, 5-lipoxygenase (Rattus norvegicus, UniProt P12527).
T1 construct: crude 5-lipoxygenase enzyme from rat basophilic leukemia cells (RBL-1); endogenous in cells; host or cells: RBL-1 (rat basophilic leukemia cells), crude enzyme
T1 sequence (P12527 1-673): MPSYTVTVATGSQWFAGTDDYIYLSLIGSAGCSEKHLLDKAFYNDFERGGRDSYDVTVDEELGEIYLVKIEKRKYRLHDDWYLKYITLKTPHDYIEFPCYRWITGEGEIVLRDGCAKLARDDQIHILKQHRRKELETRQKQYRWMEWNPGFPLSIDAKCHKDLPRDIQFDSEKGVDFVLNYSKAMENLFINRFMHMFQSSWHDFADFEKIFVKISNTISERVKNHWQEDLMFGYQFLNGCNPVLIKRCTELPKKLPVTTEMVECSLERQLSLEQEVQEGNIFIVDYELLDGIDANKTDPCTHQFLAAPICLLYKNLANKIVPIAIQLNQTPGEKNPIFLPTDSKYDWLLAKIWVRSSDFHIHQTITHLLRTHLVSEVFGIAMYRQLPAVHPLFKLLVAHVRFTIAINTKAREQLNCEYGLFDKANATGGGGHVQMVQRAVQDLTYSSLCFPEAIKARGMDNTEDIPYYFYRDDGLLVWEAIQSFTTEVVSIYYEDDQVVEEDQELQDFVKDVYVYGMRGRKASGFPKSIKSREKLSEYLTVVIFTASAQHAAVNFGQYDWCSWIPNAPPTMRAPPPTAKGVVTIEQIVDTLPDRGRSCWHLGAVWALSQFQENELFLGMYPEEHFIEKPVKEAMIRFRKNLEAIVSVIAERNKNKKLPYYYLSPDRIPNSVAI
Description: 5-Lipoxygenase inhibition (5-HETE radioimmunoassay). The class given is biochemical. The note with it: crude enzyme from RBL-1 cells, read-out: Percent Inhibition (5-lipoxygenase). On the procedure:
5-Lipoxygenase catalyzes the oxidative metabolism of arachidonic acid to 5-hydroperoxyeicosatetraenoid acid ([…]), the initial reaction leading to the formation of the leukotrienes^18. Accordingly, compounds inhibiting 5-lipoxygenase activity are art recognized to have anti-inflammatory properties.
The ability of test compounds to inhibit 5-lipoxygenase activity was determined in assays^19 using crude 5-lipoxygenase enzyme from rat basophilic leukemia cells (RBL-1). Test compounds are pre-incubated with the enzyme for 5 minutes at room temperature and the reaction is initiated by addition of substrate (arachidonic acid). Following an 8 minute incubation at room temperature, the reaction is terminated by addition of citric acid, and levels of 5-HETE determined by 5-HETE radioimmunoassay.

Another data set can be described thus: Ultraviolet absorption. The class given is physicochemical. As to conditions: 0.1 mg/mL in methanol, 1 cm quartz cuvette. On the procedure: The ultraviolet (UV) absorption properties of two representative substituted 3-indolyl-5-pyrazolones were evaluated and compared to indomethacin [1-(4-chlorobenzoyl)-5-methoxy-2-methyl-^1 H-indole-3-acetic acid], a compound known to absorb UV light (See page 4855 of the Merck Index, 10th Edition, Windholz, et al. Editor (1983)). Specifically, 0.1 mg/mL of 3-indolyl-5-pyrazolone (Ex. 9 or 33) or indomethacin in methanol was added to a quartz cuvette (1 cm) and the UV absorption of this solution was then measured at a wavelength of from 200 nm to 800 nm (Examples 9 and 33) and from 190 nm to 800 nm.

For the next data set, the system named is human cortical neurons. Description: Inhibition of toxicity of β-amyloid peptide to human neuronal cells (alamarBlue). The class given is cell-based. As to conditions: 50 μM β-amyloid peptide, 2-3 days; on average where more than one duplicate experiment; compound concentration not stated. On the procedure:
(§1) The purpose of this test is to determine the effect of 3-indolyl-5-pyrazolone compounds on the toxicity of β-amyloid peptide to neuronal cells.
Primary Human Cortical Cell Culture
Primary human cortical cultures were prepared using a modification of the procedure described by Seubert, et al.^21 Following filtration through Nitex nylon screens, cortical tissue was resuspended in a trypsin/EDTA solution (0.05% trypsin+0.53 mM EDTA in HBSS; GIBCO Laboratories, Grand Island, N.Y., USA) and kept at 37° C. for 20 minutes. The trypsin was then inactivated by resuspending the cells in serum-containing medium (MEM/FBS: Modified Eagles' Medium (MEM) containing 1% glucose, 1 mM sodium pyruvate, 1 mM glutamine, and supplemented with 10% fetal bovine serum (GIBCO). Cells were then pelleted by centrifugation and resuspended in a chemically-defined medium (MEM/B27: MEM containing B27 supplement in place of FBS; GIBCO). Polyethyleneimine (PEI; Sigma Chemical Company, St. Louis, Mo., USA)-coated 6.4 mm (96-well) dishes were rinsed once with MEM/FBS, and then seeded at 0.75 to 1.25×10^5 cells per well in 0.1 mL MEM/B27. Cultures were maintained in a H2 O-saturated incubator with an atmosphere of 95% air/5% CO 2 at 37° C. The culture medium was exchanged twice weekly. Cell viability was visually assessed by phase contrast microscopy and quantified by measuring the reduction of alamarBlue™ (Alamar Biosciences, Inc., Sacramento, Calif., USA).
(§2) β-amyloid peptide stock solutions were prepared as 1 mM stocks in sterile, doubly distilled water immediately prior to addition to cultures. Rat cortical neurons were exposed to β-amyloid peptide by removing the culture medium and replacing it with DMEM/N2 (GIBCO Laboratories,Grand Island, N.Y., USA) containing 10 to 20 μM β-amyloid peptide. Human cortical neurons were exposed to test compound plus β-amyloid peptide by removing the culture medium and replacing it with MEM containing 50 μM β-amyloid peptide. Cultures were maintained for 2-3 days before neuronal survival was quantified using alamarBlue™.
(§3) The alamarBlue™ assay incorporates a fluorometric/colorimetric metabolic indicator (Alamar Biosciences, Inc. Sacramento, Calif., USA). Viable cells convert alamarBlue™ from an oxidized (non-fluorescent, blue) form to a reduced (fluorescent, red) form. Assays were preformed by replacing the culture media with a 10% alamarBlue™ solution in DMEM (rat cortical cultures) or MEM (human cortical cultures).
For orientation: Resazurin is reduced to fluorescent resorufin, in cell work by metabolically active cells.

The next data set deals with rat cortical neurons. The data set can be described thus: Inhibition of toxicity of β-amyloid peptide to rat neuronal cells (alamarBlue). The class given is cell-based. As to conditions: 10 to 20 μM β-amyloid peptide, 2-3 days; on average where more than one duplicate experiment; compound concentration not stated. On the procedure:
as §1
Primary rat cortical cultures were established from 18 day rat fetuses. Cortical tissue was dissociated by incubation in a trypsin/EDTA solution (0.05% trypsin+0.53 mM EDTA in HBSS; GIBCO Laboratories, Grand Island, N.Y., USA) for 20 minutes at 37° C. The trypsin was then inactivated by resuspending the cells in serum-containing medium (DMEM/FBS): Dulbecco's Modified Eagles' Medium (DMEM) containing 4.5 g/L glucose, 1 mM sodium pyruvate, 1 mM glutamine, 100 Units/mL penicillin, 100 μg/mL streptomycin, and supplemented with 10% heat-inactivated fetal bovine serum (GIBCO Laboratories, Grand Island, N.Y., USA). Cells were then pelleted by centrifugation and resuspended in a chemically-defined medium (DMEM/B27: DMEM containing B27 supplement; GIBCO Laboratories, Grand Island, N.Y., USA) in place of FBS. Polyethyleneimine (PEI; Sigma Chemical Company, St. Louis, Mo., USA)-coated 6.4 mm (96-well) dishes were timed once with DMEM/FBS, and then seeded at 0.75 to 1.25×10^5 cells per well in 0.1 mL DMEM/B27. Cultures were maintained in a H2 O-saturated incubator with an atmosphere of 90% air/10% CO2 at 37° C. Cell viability was visually assessed by phase contrast microscopy and quantified by measuring the reduction of alamarBlue™ (Alamar biosciences, Inc., Sacramento, Calif., USA) as described below. Serum replacement with B27 supplement yields nearly pure neuronal cultures as judged by immunocytochemistry for glial fibrillary acidic protein and neuron-specific enolase (Brewer, et al.^20)
as §2, §3

Structures are written as SMILES.

For orientation: inhibition means the change of the read-out against control, counted positive when it falls. Regarding `COc1ccc2c(c1)c(CC1=NN(C3CCCCC3)C(=O)C1)c(C)n2C(=O)c1ccc(Cl)cc1` [Example 9, 3-[1-(4-chlorobenzoyl)-5-methoxy-2-methyl-3-indolylmethyl]-1-cyclohexyl-5-pyrazolone], in data set [1], the “reduction of β-amyloid peptide production as compared to control” value (from here on “reduction”) is listed as “at least 20%”. For the same compound, the “cytotoxic effect on the 293 751 SWE cells” value (“cytotoxic effect” below) with 293 751 SWE cells was “did not have a significant cytotoxic effect”. Moreover, the inhibition at 6 µM at 5-lipoxygenase (6 μM compound) is 75%. In addition, in “Ultraviolet absorption”, the “Abs (at λmax)” value was determined as 2.3299, the “E = Extinction coefficient” value is 23.29 AU/mg/mL/cm, the λmax was 251 nm and the “λother (shoulder)” value was found to be 318 nm.

Take `COc1ccc2c(c1)c(CC1=NN(C(C)(C)C)C(=O)C1)c(C)n2C(=O)c1ccc(Cl)cc1` [Example 14, 3-[1-(4-chlorobenzoyl)-5-methoxy-2-methyl-3-indolylmethyl]-1-t-butyl-5-pyrazolone]: the “reduction” value in data set [1] is given as “at least 20%”. In the data set with 293 751 SWE cells, the “cytotoxic effect” value is “did not have a significant cytotoxic effect”. Moreover, on 5-lipoxygenase (7.5 μM compound), the inhibition at 7.5 µM worked out at 48%.

For `COc1ccc2c(c1)c(CC1=NN(c3ccc(Cl)c(Cl)c3)C(=O)C1)c(C)n2C(=O)c1ccc(Cl)cc1` [Example 33, 3-[1-(4-chlorobenzoyl)-5-methoxy-2-methyl-3-indolylmethyl]-1-(3,4-dichlorophenyl)-5-pyrazolone], the “reduction” value in data set [1] is reported as “at least 20%”. Besides, in the data set with 293 751 SWE cells, the “cytotoxic effect” value is given as “did not have a significant cytotoxic effect”. Besides, in the data set with human cortical neurons, the “inhibition of the toxicity of β-amyloid peptide to human neuronal cells” value is “at least 25%”. Moreover, in the data set “Ultraviolet absorption”, the “Abs (at λmax)” value is given as 2.3458, the “E = Extinction coefficient” value worked out at 23.46 AU/mg/mL/cm, the λmax stood at 254 nm and the “λother (shoulder)” value is recorded as 318 nm. The “inhibition of the toxicity of β-amyloid peptide to rat neuronal cells” value with rat cortical neurons is reported as “at least 10%”.

The values above are taken from patent publication US5484940A, “Substituted 3-indolyl-5-pyrazolone compounds” (priority 1994, dated 1996).
